Experimental data taken from US5661129A, “Organic nitrates containing a disulfide group as cardiovascular agents” (Schwarz Pharma AG, priority 1993, dated 1997).
pEC50: −log10 of the molar value.

Assays:
[1] = continuous intake of high doses; classical organic nitrates and EP compounds; cited from earlier work
[2] = tested on: isolated rat aortic rings; test: Vasorelaxation in vitro on isolated rat aortic rings precontracted with phenylephrine; assay type: cell-based; settings: rat aortic rings precontracted with 2×10^-7 mol/l phenylephrine; cumulative addition; n = 3-6; read-out: EC50 (concentration which leads to a 50% relaxation of the precontracted vascular ring)
Excerpt: The vasorelaxant effect of the compounds of the general formula I was investigated in vitro on isolated rat aortic rings. For this purpose, rats were anaesthetized and then the thoracic aorta was removed, freed of adipose and adventitious tissue and divided into annular segments about 5 mm wide. The aortic rings were transferred into temperature-controlled baths containing Tyrodes' solution through which 5% CO2 /95% O2 was passed, and were subjected to a preload of 2 g. While continuously recording the change in force, the vascular rings were precontracted after equilibration with 2×10^-7 mol/l phenylephrine for 90 minutes. After a stable contraction level was reached, the nitrato compounds were cumulatively added to the vessel bath liquid, the next higher concentration in each case being added only after a stable relaxation level had been reached. The concentration of the particular compound which leads to a 50% relaxation of the precontracted vascular ring (EC50) was found from the resulting concentration-effect plots. Table 1 contains the EC50 values found in this way for selected exemplary compounds.

[3] = tested on: arterial, central venous and pulmonary artery blood pressure in a conscious dog; test: Effects on blood pressure in a conscious dog; assay type: in vivo; parameters: unit not given here; settings: intravenous, 13.4 μg/kg disulphide compounds
Protocol: The SAP was measured using a tip catheter transducer inserted into the aorta via the femoral artery, and the CVP and the PAP were measured using a Swan-Ganz catheter which was inserted via the left jugular vein and whose catheter tips were advanced as far as the pulmonary artery and the right atrium respectively and through whose lumens the particular pressure was passed to Statham® pressure transducers. To quantify the lowering of blood pressure elicited by the compound according to the invention, the areas under the curves (AUC) of the recorded changes in blood pressure were determined. Table 2 contains the AUC values for the relevant lowering of blood pressure after intravenous administration of 13.4 μg/kg of the disulphide compounds according to the invention and after intravenous administration of 26.8 μg/kg isosorbide 5-mononitrate (5-ISMN).

## O=[N+]([O-])O[C@@H]1CO[C@H]2[C@@H]1OC[C@@H]2O [Example 5-ISMN, isosorbide 5-mononitrate, reference compound]
[1]
  nitrate tolerance (attenuation of the effect): distinct attenuation of the effect, nitrate tolerance

## CC(C)(C)OC(=O)[C@H](CSSC[C@H](NC(=O)C(C)(C)CO[N+](=O)[O-])C(=O)OC(C)(C)C)NC(=O)C(C)(C)CO[N+](=O)[O-] [N,N'-di(3-nitratopivaloyl)-L-cystine di-tert.-butyl ester]
[2]
  pEC50: 4.23

## CCOC(=O)[C@H](CSSC[C@H](NC(=O)C(C)(C)CO[N+](=O)[O-])C(=O)OCC)NC(=O)C(C)(C)CO[N+](=O)[O-] [N,N'-di(3-nitratopivaloyl)-L-cystine diethyl ester]
[2]
  pEC50: 5.82
[3]
  AUC (CVP), lowering of central venous blood pressure: 85.7
  AUC (PAP), lowering of pulmonary artery blood pressure: 12.0
  AUC (SAP), lowering of systolic arterial blood pressure: 94.1

## CNC(=O)[C@H](CSSC[C@H](NC(=O)C(C)(C)CO[N+](=O)[O-])C(=O)NC)NC(=O)C(C)(C)CO[N+](=O)[O-] [N,N'-di(3-nitratopivaloyl)-L-cystine-di(N-methylamide)]
[2]
  pEC50: 4.62
[3]
  AUC (CVP), lowering of central venous blood pressure: 33.7
  AUC (PAP), lowering of pulmonary artery blood pressure: 3.5
  AUC (SAP), lowering of systolic arterial blood pressure: 41.9

## CC(C)(CO[N+](=O)[O-])C(=O)N[C@@H](CSSC[C@H](NC(=O)C(C)(C)CO[N+](=O)[O-])C(=O)O)C(=O)O [N,N'-di(3-nitratopivaloyl)-L-cystine]
[2]
  pEC50: 3.92
[3]
  AUC (CVP), lowering of central venous blood pressure: 67.9
  AUC (PAP), lowering of pulmonary artery blood pressure: 2.7
  AUC (SAP), lowering of systolic arterial blood pressure: 17.3

## CC(C)(CO[N+](=O)[O-])C(=O)N[C@@H](CSSC[C@H](NC(=O)C(C)(C)CO[N+](=O)[O-])C(N)=O)C(N)=O [N,N'-di(3-nitratopivaloyl)-L-cystinediamide]
[2]
  pEC50: 4.52
[3]
  AUC (CVP), lowering of central venous blood pressure: 46.9
  AUC (PAP), lowering of pulmonary artery blood pressure: 28.1
  AUC (SAP), lowering of systolic arterial blood pressure: 55.3

## CC(C)(CO[N+](=O)[O-])C(=O)N[C@@H](CSSC[C@H](NC(=O)C(C)(C)CO[N+](=O)[O-])C(=O)N1CCCCC1)C(=O)N1CCCCC1 [N,N'-di(3-nitratopivaloyl)-L-cystinedipiperidide]
[2]
  pEC50: 4.00
[3]
  AUC (CVP), lowering of central venous blood pressure: 36.9
  AUC (PAP), lowering of pulmonary artery blood pressure: 18.5
  AUC (SAP), lowering of systolic arterial blood pressure: 10.4

## O=[N+]([O-])OCC(CO[N+](=O)[O-])O[N+](=O)[O-] [glycerol trinitrate]
[1]
  nitrate tolerance (attenuation of the effect): distinct attenuation of the effect, nitrate tolerance
